In a melting point compilation (Tetko et al.; mined from patent text by program, amines drawn as free bases though some values may be those of a salt) one finds melting point data, which are given here for 86 compounds.

Each structure is given as a SMILES string.

Consider `COc1cc2c(Nc3ccc(Oc4cccnc4)cc3)c(C#N)cnc2cc1N1CCC(N2CCCC2)CC1`, for which the melting point lay within 194 to 196 °C.
Consider `Cn1c(-c2ccc(Cl)cc2)cc2ncccc2c1=O`, for which the melting point is 139 to 140 °C.
`CC(Cl)(Cl)C(NC(=O)c1cccc(Cl)c1)NC(=NC#N)Nc1ccc(C(F)(F)F)nc1` (stereo unspecified) displayed a melting point of 191 to 192 °C.
Then `CCOC(=O)c1ccc(-c2nc3ccccc3s2)cc1`, with 132 to 134 °C.
Next, `COC(=O)COc1ccc(NC(=O)OCCO)cc1`: 85.5 to 87.5 °C; `CCOC(=O)CN1C(=O)C(NC(=O)Nc2cccc(C)c2)N=C(C)c2cccc(C)c21` (stereo unspecified): 230 to 231 °C.
Then `C#Cc1ccc2c(c1)[C@@H](N)[C@H](O)CO2` (relative stereo), with 132 to 134 °C; and `CCCCCc1ccc(CCc2ccc(-c3ccc(OC(F)(F)F)cc3)cc2)cc1`, with 60 °C.
In turn, `O=C(NCCOc1ccc(CC(Sc2ccccc2)C(=O)O)cc1)c1ccc(-c2ccccn2)cc1` (stereo unspecified) showed a melting point of 75 to 77 °C.
Then `CCOC(=O)Cc1c(C(=O)OCC)cnc2c(NC(=O)c3c(Cl)cccc3Cl)cccc12`, with 159 °C.
As for `CCc1ccc(C2CCCN2S(=O)(=O)c2ccc(Cl)cc2)cc1` (racemic), the melting point is 94 °C.
`Cc1ccc(Oc2ccc(-c3ccc(Cl)cc3)cc2)cc1` came in with a melting point of 130 °C.
For the compound `COc1cc2nc(NCCNCC(O)COc3ccccc3)nc(N)c2cc1OC` (stereo unspecified), the melting point is 122 to 124 °C.
`CCOC(=O)c1c(-c2ccccc2)c(-c2ccc(F)cc2)cn1C(C)C`: the melting point lay within 104 to 105 °C.
Next, `O=c1cc2c(nn1-c1ccc(Cl)cc1)-c1cc(F)ccc1S(=O)CC2` (stereo unspecified): 233 to 235 °C; `Oc1ccc(OCc2ccccc2)c2ccccc12`: 118 to 119 °C.
The compound `COc1cc2c(N)nc(N3CCN(c4nc5ccccc5s4)CC3)nc2c(OC)c1OC` yielded a melting point above 250 °C.
Then `N=C1C2CC(F)CN2C(=O)CN1C1CCC(Cn2cncn2)C1` (stereo unspecified), with 158 to 162 °C.
Next, `Nc1nc2cc3[nH]c(-c4ccncc4)nc3cc2[nH]1`: above 320 °C.
Consider `CC(=O)OCC(=O)C1(O)CCC2C3CCC4=CC(=O)C=CC4(C)C3(F)C(O[Si](C)(C)C)CC21C` (stereo unspecified), for which the melting point is 203 to 204 °C.
Then `Cc1cccc(-c2ccc3c(C(N)=O)nn(-c4ccc(S(N)(=O)=O)cc4)c3c2)c1`, with 261 to 263 °C; and `O=C(O)CCSC(=S)NCc1ccc(Cl)cc1`, with 104 to 105 °C; and `CC(=O)C1CCCNC1=O` (stereo unspecified), with 101 to 103 °C.
On to `CCOC(=O)C1CN(C(C)=O)CCN1CC=CC(=O)Nc1cc2c(Nc3ccc(F)c(Cl)c3)ncnc2cc1OCC1CC1` (stereo unspecified), for which the melting point lay in the range of 152 to 156 °C.
Next, `CC(=O)OCCN1CCN(CC#CC2=Cc3ccccc3Sc3ccc(Cl)cc32)CC1`: 96 to 99 °C.
Then `Cc1ccc(C(=O)c2ccc3nc(Cl)nc(-c4cccc(Cl)c4)c3c2)cc1`, with 156 °C; and `O=C(O)CNc1nc(NCc2ccc(NC(=O)c3ccc(F)cc3)cc2)c2ccccc2n1`, with 235 °C; and `CSc1nc2ccc(Br)cc2o1`, with 95 to 96 °C.
Then `COc1ccc(C(=O)N2c3ccccc3C(N3CCCc4cc(C)ccc43)CC2C)cc1OC` (stereo unspecified), with 139 to 140 °C; and `Cc1nc2c3c(c(C(=O)N(C)C)cc2[nH]1)CCC1(Cc2ccccc2C1)N3`, with 183 °C.
In the case of `CCc1ccc(Sc2nn(-c3ccc(OC)cc3)c(=O)c(C#N)c2C)cc1`, the melting point lay within 159 to 160 °C.
Then `CC1(C)N=C(N)N=C(N)N1OCc1cccc2ccccc12`, with 170 to 171 °C.
Next, `COc1cc(OC)nc(Oc2cccc3c2C(=O)OC3SC#N)n1` (stereo unspecified): 161 to 163 °C; `Cc1c(C)c2c(c(C)c1NC(=O)C(C)C)CC(C)(C)O2`: 136 to 138 °C; `Cc1ncoc1C(C)(O)c1ccccc1` (stereo unspecified): 102 to 104 °C.
Then `COc1ccc(-c2sc3cc(OC)ccc3c2C(=O)c2ccccc2)cc1`, with 100 to 102 °C.
As to `O=C(NCCN1CCOCC1)Nc1nc2ccc(OCc3c(F)cccc3Cl)cc2s1`, the melting point is 210 °C.
`COc1ccc(Nc2ccc(Nc3ncnc4cc(-c5ccc(OC)cc5)sc34)cc2)cc1`: the melting point fell in the range of 159 to 169 °C.
Next, `COc1cc(C)c2c(c1)CCN2c1nc(Cl)cn(CCSC)c1=O`: 111 to 113 °C; `CC(C)(O)CNc1nccc(-c2c(-c3ccc(F)cc3F)nc3c(CC4CC4)nccn23)n1`: 174 to 176 °C; `Cn1nc2ccc(Cl)nn2c1=O`: 176 to 177 °C.
Then `CC(C)(CCc1cc2nc(Cl)ccc2n1S(=O)(=O)c1ccc2ncsc2c1)C(=O)O`, with 21 °C.
In the case of `Cc1nc2c(N)nc3ccccc3c2n1CC(C)(C)OCCS(C)(=O)=O`, the melting point was in the range of 253 to 255 °C.
The compound `CN1N=C(c2ccc(F)cc2)c2ccc(F)cc2CS1(=O)=O` came in with a melting point of 205 to 206 °C.
Next, `O=[N+]([O-])c1ccc(SCc2c[nH]cn2)nc1`: 155 to 156 °C.
Next, `Cc1cc(-c2nc3cccnn3c2-c2ccnc(NC(=O)NCCO)c2)ccc1F`: 189 to 190 °C.
Next, `CCOC(=O)CSc1nc(O)c(C)c(O)n1`: 211 to 214 °C.
In turn, `CCc1cc(CC)n2nccc2n1` had a melting point of 43 to 44 °C.
Next, `c1ccc(-c2nc(COc3ccc(CCCn4ccnc4)cc3)co2)cc1`: 111 to 112 °C.
On to `CCC12CCC3C4CCC(=O)C=C4CCC3C1CCC2OC` (stereo unspecified), for which the melting point lay within 117 to 119 °C.
With `CC1(C)CC(=O)CC(C)(C)c2cc(Br)ccc21`, the melting point was 104 to 105 °C.
Then `C=C(CO)C(C(=O)OC(c1ccccc1)c1ccccc1)N1C(=O)C2N=C(Cc3ccccc3)OC21` (stereo unspecified), with 40 to 55 °C.
For `COc1ccccc1NC(=S)c1ccc(C(F)(F)F)cc1`, the melting point is 118 to 120 °C.
Then `CCCCCC(=O)OCC(=O)C1C(C)CC2C3=C(C(=O)CC21C)C1(C)C=CC(=O)C=C1C(F)C3` (stereo unspecified), with 159 °C; and `CC(C)(C)c1ccc2c(c1)C=C(C(=O)O)C(C(F)(F)F)O2` (stereo unspecified), with 171 to 173 °C.
Then `COC(=O)COc1ccc(C(=O)CNC=O)cc1`, with 116 °C.
Then `Nc1nc2ccccc2c2c1ncn2CCCCNC(=O)c1cccc2cccnc12`, with 91 to 93 °C; and `C=CCOc1ccc2c(c1)c(-c1cc3cccnc3n1S(=O)(=O)c1ccc(C)cc1)cn2C`, with 257 to 259 °C.
`NC(=O)c1c(Cl)cc(Cl)c(O)c1Cl` had a melting point of 204 to 206 °C.
Then `O=C(O)COc1c(Br)cc(-c2cccc3sc4ccccc4c23)cc1Br`, with 212 to 213 °C; and `COC(=O)C(C(=O)OC)c1ccc(Br)cc1[N+](=O)[O-]`, with 86 to 88 °C; and `CCOCc1nc2c(N)nc3cc(N4CCOCC4)ccc3c2n1CCCOC(C)C`, with 161 to 162 °C.
Next, `O=C(O)CCCc1cc2nc(Cl)ccc2n1S(=O)(=O)c1ccc(-c2cccnc2)cc1`: 141 °C; `Cn1cncc1C(O)(c1ccc2c(c1)OCCO2)c1ccc2[nH]c(=O)nc(-c3cccc(Cl)c3)c2c1` (stereo unspecified): above 260 °C; `C=C1Oc2cc(OS(=O)(=O)C(F)(F)F)ccc2C(=O)C1c1ccccc1` (stereo unspecified): 133 to 135 °C.
Next, `CCC1(CC)Cc2cc(OC)c(Cl)c(Cl)c2C1=O`: 118 °C; `Cc1sc2nc3ccc(C#N)cn3c(=O)c2c1C`: 306 to 307 °C.
`CCN(CC)Cc1cc(C2(c3cccc(-c4cccnc4F)c3)N=C(N)N(C)C2=O)cn1CCF` (stereo unspecified) displayed a melting point of 121 to 140 °C.
Then `CC(C(=O)O)c1ccc(CCNC(=O)c2cccc3cccnc23)cc1` (stereo unspecified), with 143 to 144 °C; and `COc1cccc(N(CC(=O)N(C)c2ccccc2)C(=O)CNC(=O)Nc2cccc(C(C)O)c2)c1` (racemic), with 115 °C.
Regarding `Cc1cccc(NC(=O)c2cccc(C(F)(F)F)c2)c1C(=O)O`, the melting point was in the range of 198 to 204 °C.
Then `NNc1ncnc(Nc2ccc(F)c(C(F)(F)F)c2)n1`, with 181 to 182 °C; and `O=C1Nc2ccc3sccc3c2C1=O`, with 200 to 201 °C; and `BrCc1ccc2nc(-c3ccccc3)oc2c1`, with 162 °C.
For `COc1cc(C[C@@H](NC(C)=O)C(=O)O)ccc1OC(C)=O`, the melting point lay within 174 to 175 °C.
Then `CCn1nc(C(F)(F)F)cc1NC(=O)C1C(C)=CC=CC1(C(N)=O)C(C)C` (stereo unspecified), with 223 to 226 °C; and `CCCCP(=O)(C(=O)c1c(C)cc(C)cc1C)C(=O)c1c(OC)cccc1OC` (stereo unspecified), with 94 to 96 °C.
Then `COc1cc(N2CCC(N3CCOCC3)CC2)ccc1Nc1ncc2ccc(-c3ccccc3S(C)(=O)=O)n2n1`, with 111 to 112 °C.
Next, `CN(C)c1ccccc1CS(=O)c1cnc2ccccc2n1` (stereo unspecified): 114 to 115 °C; `CCCCc1nc(SC)c(C(C)=O)n1Cc1ccc(-c2ccccc2S(=O)(=O)NC(=O)NCCC)cc1`: 176 to 177 °C; `Cc1cc(C)cc(-c2cn(C(C)C)c3ccccc23)c1`: 60 to 62 °C.
Turning to `Cc1nnc2n1-c1ccccc1C(c1ccc(Cl)cc1)=NN2Cc1ccc(NS(C)(=O)=O)cc1`, the melting point was 273 to 275 °C.
Next, `CCCCc1ncc(/C=C(\Cc2cccs2)C(=O)O)n1Cc1ccc(C(=O)O)cc1[N+](=O)[O-]`: 163 °C; `COC1=CC(=O)c2c(O)c(CO)c(CC(C)O)c(O)c2C1=O` (stereo unspecified): 206 to 212 °C.
Then `CC(/C=C/c1c(C)oc(C)c1C)=C\C=C\C(C)=C\C(=O)O`, with 213 to 214 °C; and `CS(=O)(=O)c1ccc(-c2cc(CBr)nn2-c2ccc(Cl)cc2)cc1`, with 60 to 64 °C.
